Reference: patent publication US5601800A, “New multifunctional ligands for potential use in the design therapeutic or diagnostic radiopharmaceutical imaging agents” (Curators of the University of Missouri, priority 1994, dated 1997)

Assay: water solubility
Format: physicochemical

solubility in water: soluble in water
Compound: CCCCP(=N)(CCCC)CCCC [tributylphosphinimine]
